Experimental data: ChEMBL document CHEMBL3885881, “DrugMatrix”

Tests used:
Rattus norvegicus [1] = species on record: Rattus norvegicus; assay type: toxicity, organism-based, Sprague-Dawley; settings: in vivo, po, 17 mg/kg, 24 h, route oral GAVAGE, dose level High, time 1 day, vehicle .5 % CMC
Description: DrugMatrix - Regimen: Single

Rattus norvegicus [2] = species on record: Rattus norvegicus; test: DrugMatrix - Regimen: Daily Repeat; assay type: toxicity, organism-based, Sprague-Dawley; parameters: regimen Daily Repeat, gender Male, age 6-8 weeks; settings: in vivo, po, 17 mg/kg, 72 h, route oral GAVAGE, dose level High, time 3 day, vehicle .5 % CMC

## O=C(Nc1c(Cl)cncc1Cl)c1ccc(OC(F)F)c(OCC2CC2)c1 [ROFLUMILAST]
Rattus norvegicus [1]; tissue Blood
  ABSOLUTE EOSINOPHIL: 58.67 CELLS/uL
  ABSOLUTE LYMPHOCYTE: 7680 CELLS/uL
  ABSOLUTE MONOCYTE: 245.33 CELLS/uL
  ABSOLUTE SEGMENTED NEUTROPHIL: 416 CELLS/uL
  BASOPHIL: 0%
  EOSINOPHIL: 0.67%
  ERYTHROCYTE COUNT: 5.72 x10E6/uL
  HEMATOCRIT: 34.83%
  HEMOGLOBIN: 12.9 G/DL
  LEUKOCYTE COUNT: 8.4 x10E3/uL
  LYMPHOCYTE: 91.33%
  MEAN CORPUSCULAR HEMOGLOBIN: 22.67 pg
  MEAN CORPUSCULAR HEMOGLOBIN CONCENTRATION: 37.1 G/DL
  MONOCYTE: 3%
  NEUTROPHIL: 5%
  NUCLEATED RED BLOOD CELLS: 0 /100WBC
  PLATELET COUNT: 734 x10E3/uL
Rattus norvegicus [1]; tissue Plasma
  ALANINE AMINOTRANSFERASE: 52.33 u/L
  ALBUMIN: 4.07 G/DL
  ALKALINE PHOSPHATASE: 343 u/L
  ASPARTATE AMINOTRANSFERASE: 103 u/L
  BLOOD UREA NITROGEN: 16.33 mg/dL
  CARBON DIOXIDE: 32 mmol/L
  CHLORIDE: 103.33 MEQ/L
  CHOLESTEROL: 76.67 mg/dL
  CREATININE: 0.17 mg/dL
  GLUCOSE: 156.33 mg/dL
  LACTATE DEHYDROGENASE: 133.67 u/L
  LIPASE: 9.33 u/L
  PHOSPHORUS: 12.87 mg/dL
  POTASSIUM: 6.09 MEQ/L
  SODIUM: 148.53 MEQ/L
  TOTAL BILIRUBIN: 0.17 mg/dL
  TOTAL PROTEIN: 6.2 G/DL
  URIC ACID: 1.27 mg/dL
Rattus norvegicus [2]; tissue Blood
  ABSOLUTE BASOPHIL: 0 CELLS/uL
  ABSOLUTE EOSINOPHIL: 460.33 CELLS/uL
  ABSOLUTE LYMPHOCYTE: 8656.33 CELLS/uL
  ABSOLUTE MONOCYTE: 1347.33 CELLS/uL
  ABSOLUTE SEGMENTED NEUTROPHIL: 10002.67 CELLS/uL
  BASOPHIL: 0%
  EOSINOPHIL: 2.33%
  ERYTHROCYTE COUNT: 6.23 x10E6/uL
  HEMATOCRIT: 37.23%
  HEMOGLOBIN: 13.5 G/DL
  LEUKOCYTE COUNT: 20.47 x10E3/uL
  LYMPHOCYTE: 42.67%
  MEAN CORPUSCULAR HEMOGLOBIN: 21.7 pg
  MEAN CORPUSCULAR HEMOGLOBIN CONCENTRATION: 36.27 G/DL
  MONOCYTE: 6.33%
  NEUTROPHIL: 48.67%
  NUCLEATED RED BLOOD CELLS: 0 /100WBC
  PLATELET COUNT: 1131 x10E3/uL
Rattus norvegicus [2]; tissue Plasma
  ALANINE AMINOTRANSFERASE: 18 u/L
  ALBUMIN: 3.07 G/DL
  ALKALINE PHOSPHATASE: 189.33 u/L
  ASPARTATE AMINOTRANSFERASE: 63 u/L
  BLOOD UREA NITROGEN: 17.33 mg/dL
  CARBON DIOXIDE: 28.33 mmol/L
  CHLORIDE: 97.33 MEQ/L
  CHOLESTEROL: 61 mg/dL
  CREATININE: 0.15 mg/dL
  GLUCOSE: 131.67 mg/dL
  LACTATE DEHYDROGENASE: 149.67 u/L
  LIPASE: 8.33 u/L
  PHOSPHORUS: 10.43 mg/dL
  POTASSIUM: 4.72 MEQ/L
  SODIUM: 144.73 MEQ/L
  TOTAL BILIRUBIN: 0.1 mg/dL
  TOTAL PROTEIN: 6.4 G/DL
  URIC ACID: 1.37 mg/dL
